This passage reports IC50 and inhibition results from patent publication US20070191336A1 (priority 2003, published 2007).

For orientation: IC50 means the concentration that inhibits the measured activity by half. Higher therefore signals weaker potency.

T1 sequence (Q16539 whole entry): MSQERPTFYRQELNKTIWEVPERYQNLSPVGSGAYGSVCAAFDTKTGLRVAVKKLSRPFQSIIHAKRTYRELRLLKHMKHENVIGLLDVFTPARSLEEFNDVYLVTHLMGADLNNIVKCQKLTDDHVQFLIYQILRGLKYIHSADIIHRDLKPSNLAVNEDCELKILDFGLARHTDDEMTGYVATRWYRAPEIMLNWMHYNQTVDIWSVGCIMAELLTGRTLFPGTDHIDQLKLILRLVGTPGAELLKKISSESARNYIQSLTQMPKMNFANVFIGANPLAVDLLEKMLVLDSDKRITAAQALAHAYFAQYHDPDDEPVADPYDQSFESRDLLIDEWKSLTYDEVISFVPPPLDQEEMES

One experiment concerns the target T1, phospho p-38 alpha kinase (Homo sapiens, UniProt Q16539).
T1 construct: purchased Panvera
Kind of experiment: P-38 alpha kinase assay (spectrophotometric, pyruvate kinase/lactate dehydrogenase coupled). In kind it is biochemical. To be noted: Table 3; rates from […] to 2 h time frame.
For `CCOC(=O)Cc1ccc(-n2nc(C(C)(C)C)cc2NC(=O)Nc2cccc(Cl)c2Cl)cc1` [Example 421], the 50% inhibitory concentration (IC50) amounted to 14.7 nM.
On the same count and under the same terms, the result for `CC(Cc1cccc(-n2nc(C(C)(C)C)cc2NC(=O)Nc2cccc(Cl)c2Cl)c1)C(=O)O` (stereo not drawn) [Example 426, 3-(3-{3-t-butyl-5-[3-(2,3-dichlorophenyl)ureido]-1H-pyrazol-1-yl}-phenyl)-2-methylpropanoic acid] reads 13 nM.
Regarding `CCOC(=O)C(C)Cc1ccc(-n2nc(C(C)(C)C)cc2NC(=O)Nc2cccc3ccccc23)cc1` (stereo not drawn) [Example 427, ethyl 3-(4-{3-t-butyl-5-[3-(naphthalen-1-yl)ureido]-1H-pyrazol-1-yl}phenyl)-2-methylpropanoate], the midpoint of inhibition, the IC50, lay at 819 nM.
Still for that read-out and setting: the result for `CC(Cc1ccc(-n2nc(C(C)(C)C)cc2NC(=O)Nc2cccc3ccccc23)cc1)C(=O)O` (stereo not drawn) [Example 428, 3-(4-{3-t-butyl-5-[3-(naphthalen-1-yl)ureido]-1H-pyrazol-1-yl}phenyl)-2-methylpropanoic acid] reads 140 nM; that for `CCOC(=O)C(C)Cc1ccc(-n2nc(C(C)(C)C)cc2NC(=O)Nc2ccc(Cl)cc2)cc1` (stereo not drawn) [Example 429, ethyl 3-(4-{3-t-butyl-5-[3-(4-chlorophenyl)ureido]-1H-pyrazol-1-yl}phenyl)-2-methylpropanoate], 1070 nM.
On the same count and under the same terms, to `CC(Cc1ccc(-n2nc(C(C)(C)C)cc2NC(=O)Nc2ccc(Cl)cc2)cc1)C(=O)O` (stereo not drawn) [Example 430, 3-(4-{3-t-butyl-5-[3-(4-chlorophenyl)ureido]-1H-pyrazol-1-yl}phenyl)-2-methylpropanoic acid] belongs 942 nM; to `O=C(Nc1ccc(Cl)cc1)Nc1cc(-c2ccccc2)nn1-c1ccc(CO)cc1` [Example 434, 1-(4-chlorophenyl)-3-{1-[4-(hydroxymethyl)phenyl]-3-phenyl-1H-pyrazol-5-yl}-urea], 1900 nM; to `CC(C)c1cc(NC(=O)Nc2ccc(Cl)cc2)n(-c2ccc(CO)cc2)n1` [Example 438, 1-(4-chlorophenyl)-3-{1-[4-(hydroxymethyl)phenyl]-3-isopropyl-1H-pyrazol-5-yl}-urea], 1300 nM.
Still for that read-out and setting: the result for `CC(C)(O)c1cccc(-n2nc(C(F)(F)F)cc2NC(=O)Nc2cccc3ccccc23)c1` [Example 440] reads 920 nM.
`O=C(Nc1ccc(Cl)cc1)Nc1cc(C(F)(F)F)nn1-c1ccc(CO)cc1` [Example 442, 1-(4-chlorophenyl)-3-{3-(trifluoromethyl)-1-[4-(hydroxyl-methyl)phenyl]-1H-pyrazol-5-yl}urea] displayed an IC50 of 3010 nM.
Still for that read-out and setting: to `Cc1cc(NC(=O)Nc2cccc3ccccc23)n(-c2cccc(C(C)(C)O)c2)n1` [Example 444, 1-{1-[3-(2-hydroxypropan-2-yl)phenyl]-3-methyl-1H-pyrazol-5-yl}-3-(naphthalen-1-yl)urea] belongs 5000 nM; to `O=C(Nc1cccc(Cl)c1)Nc1cc(-c2ccccc2)nn1-c1cccc(CO)c1` [Example 455, 1-{3-phenyl-1-[3-(hydroxymethyl)phenyl]-1H-pyrazol-5-yl}-3-(3-chlorophenyl)urea], 100 nM.
The same measure, in the same setting: to `O=C(Nc1cccc(Br)c1)Nc1cc(-c2ccccc2)nn1-c1cccc(CO)c1` [Example 456, 1-(3-bromophenyl)-3-{1-[3-(hydroxymethyl)phenyl]-3-phenyl-1H-pyrazol-5-yl}urea] belongs 40 nM.
Same read-out and setting: the result for `O=C(Nc1cccc(C(F)(F)F)c1)Nc1cc(-c2ccccc2)nn1-c1cccc(CO)c1` [Example 457, 1-{3-phenyl-1-[3-(hydroxymethyl)phenyl]-1H-pyrazol-5-yl}-3-(3-trifluoromethylphenyl)urea] reads 1100 nM; that for `COc1cccc(NC(=O)Nc2cc(-c3ccccc3)nn2-c2cccc(CO)c2)c1` [Example 458, 1-{3-phenyl-1-[3-(hydroxymethyl)phenyl]-1H-pyrazol-5-yl}-3-(3-methoxyphenyl)urea], 1000 nM; that for `O=C(Nc1cccc(Cl)c1Cl)Nc1cc(-c2ccccc2)nn1-c1cccc(CO)c1` [Example 459, 1-{3-phenyl-1-[3-(hydroxymethyl)phenyl]-1H-pyrazol-5-yl}-3-(2,3-dichlorophenyl)urea], 20 nM.
`CC(C)(C)c1cc(NC(=O)Nc2cccc3ccccc23)n(-c2ccc(CO)cc2)n1` [Example 461, 1-{3-t-butyl-1-[4-(hydroxymethyl)phenyl]-1H-pyrazol-5-yl}-3-(naphthalen-1-yl)urea] had an IC50 of 17 nM.
The same measure, in the same setting: to `CC(O)c1ccc(-n2nc(C(C)(C)C)cc2NC(=O)Nc2cccc3ccccc23)cc1` (stereo not drawn) [Example 463, 1-{3-t-butyl-1-[4-(1-hydroxyethyl)phenyl]-1H-pyrazol-5-yl}-3-(naphthalen-1-yl)urea] belongs 56 nM; to `C#CC(O)c1ccc(-n2nc(C(C)(C)C)cc2NC(=O)Nc2cccc3ccccc23)cc1` (stereo not drawn) [Example 464, 1-{3-t-butyl-1-[4-(1-hydroxyprop-2-ynyl)phenyl]-1H-pyrazol-5-yl}-3-(naphthalen-1-yl)urea], 19 nM; to `CC(C)(C)c1cc(NC(=O)Nc2cccc(Cl)c2Cl)n(-c2ccc(CO)cc2)n1` [Example 466, 1-{3-t-butyl-1-[4-(hydroxymethyl)phenyl]-1H-pyrazol-5-yl}-3-(2,3-dichloro-phenyl)urea], 7 nM.
Same read-out and setting: the result for `CC(C)(C)c1cc(NC(=O)Nc2cccc(Cl)c2Cl)n(-c2ccc(C(C)(C)O)cc2)n1` [Example 467, 1-{3-t-butyl-1-[4-(2-hydroxypropan-2-yl)phenyl]-1H-pyrazol-5-yl}-3-(2,3-dichlorophenyl)urea] reads 119 nM; that for `CC(C)(C)c1cc(NC(=O)Nc2cccc(Cl)c2Cl)n(-c2ccc(C(=O)O)cc2)n1` [Example 468, 4-{3-t-butyl-5-[3-(2,3-dichlorophenyl)ureido]-1H-pyrazol-1-yl}benzoic acid], 8.6 nM.
Still for that read-out and setting: to `CC(O)c1cccc(-n2nc(C(C)(C)C)cc2NC(=O)Nc2cccc3ccccc23)c1` (stereo not drawn) [Example 472, 1-{3-t-butyl-1-[3-(1-hydroxyethyl)phenyl]-1H-pyrazol-5-yl}-3-(naphthalen-1yl)urea] belongs 50 nM; to `C#CC(O)c1cccc(-n2nc(C(C)(C)C)cc2NC(=O)Nc2cccc3ccccc23)c1` (stereo not drawn) [Example 473, 1-{3-t-butyl-1-[3-(1-hydroxyprop-2-ynyl)phenyl]-1H-pyrazol-5-yl}-3-(naphthalen-1-yl)urea], 4 nM; to `CCOC(=O)c1cccc(-n2nc(C(C)(C)C)cc2NC(=O)Nc2cccc(Cl)c2Cl)c1` [Example 474, ethyl 3-{3-t-butyl-5-[3-(2,3-dichlorophenyl)ureido]-1H-pyrazol-1-yl}benzoate], 380 nM.
In turn, `CC(C)(C)c1cc(NC(=O)Nc2cccc(Cl)c2Cl)n(-c2cccc(CO)c2)n1` [Example 475, 1-[3-t-butyl-1-(3-hydroxymethyl-phenyl)-1H-pyrazol-5-yl]-3-(2,3-dichlorophenyl)-urea] came in with a half-inhibitory concentration (IC50) of 10 nM.
`CC(C)(C)c1cc(NC(=O)Nc2cccc(Cl)c2Cl)n(-c2cccc(C(C)(C)O)c2)n1` [Example 476, 1-{3-t-butyl-1-[3-(2-hydroxypropan-2-yl)phenyl]-1H-pyrazol-5-yl}-3-(2,3-dichlorophenyl)urea] gave an IC50 of 24 nM.
Still for that read-out and setting: to `CC(C)(C)c1cc(NC(=O)Nc2cccc(Cl)c2Cl)n(-c2cccc(C(=O)O)c2)n1` [Example 477, 3-{3-t-butyl-5-[3-(2,3-dichlorophenyl)ureido]-1H-pyrazol-1-yl}benzoic acid] belongs 42 nM; to `CC(C)(C)c1cc(NC(=O)Nc2ccc(Cl)cc2)n(-c2cccc(CN3C(=O)NC(=O)C3=O)c2)n1` [Example 481, 1-{3-t-butyl-2-{3-[(2,4,5-trioxoimidazolidin-1-yl)methyl]phenyl}-1H-pyrazol-3-yl}-3-(4-chlorophenyl)urea], 230 nM; to `CC(C)(C)c1cc(NC(=O)Nc2cccc3ccccc23)n(-c2cccc(CN3C(=O)C(=O)NS3(=O)=O)c2)n1` [Example 482, 1-{5-t-butyl-2-[3-(1,1,3,4-tetraoxo-1λ^6-[1,2,5]thiadiazolidin-2-ylmethyl)phenyl]-2H-pyrazol-3-yl}-3-(naphthalen-1-yl)urea], 84 nM.
The same measure, in the same setting: to `CC(C)(C)c1cc(NC(=O)Nc2ccc(Cl)cc2)n(-c2cccc(CN3C(=O)C(=O)NS3(=O)=O)c2)n1` [Example 483, 1-{5-t-butyl-2-[3-(1,1,3,4-tetraoxo-1λ^6-[1,2,5]thiadiazolidin-2-ylmethyl)phenyl]-2H-pyrazol-3-yl}-3-(4-chlorophenyl)urea] belongs 270 nM; to `CC(C)(C)c1cc(NC(=O)Nc2cccc3ccccc23)n(-c2cccc(CNC(=O)N3CCOCC3)c2)n1` [Example 485, 1-(3-t-butyl-1-{3-[(morpholine-4-carboxamido)methyl]phenyl}-1H-pyrazol-5-yl)-3-(naphthalen-1-yl)urea], 50 nM.

Staying with this experiment, now noted: read-out: % Inhibition @ concentration, Table 3; at 0.1 uM.
Consider `CC(C)c1cc(NC(=O)Nc2cccc3ccccc23)n(-c2cccc(C(C)(C)O)c2)n1` [Example 436, 1-{1-[3-(2-hydroxypropan-2-yl)phenyl]-3-isopropyl-1H-pyrazol-5-yl}-3-(naphthalen-1-yl)urea], for which the inhibition at 0.1 µM worked out at 16%.

Staying with this experiment, now noted: read-out: % Inhibition @ concentration, Table 3; at 1 uM.
Consider `CC(C)(O)c1cccc(-n2nc(-c3ccccc3)cc2NC(=O)Nc2cccc3ccccc23)c1` [Example 432, 1-{1-[3-(2-hydroxypropan-2-yl)phenyl]-3-phenyl-1H-pyrazol-5-yl}-3-(naphthalen-1-yl)urea], for which the inhibition at 1 µM amounted to 9%.
Same read-out and setting: to `CC(C)c1cc(NC(=O)Nc2cccc3ccccc23)n(-c2cccc(C(C)(C)O)c2)n1` [Example 436, 1-{1-[3-(2-hydroxypropan-2-yl)phenyl]-3-isopropyl-1H-pyrazol-5-yl}-3-(naphthalen-1-yl)urea] belongs 41%; to `Cc1cc(NC(=O)Nc2cccc(Cl)c2Cl)n(-c2ccc(CO)cc2)n1` [Example 450, 1-(2,3-dichlorophenyl)-3-{1-[4-(hydroxymethyl)phenyl]-3-methyl-1H pyrazol-5-yl)urea], 89%.
Still for that read-out and setting: the result for `Cc1cc(NC(=O)Nc2cccc3ccccc23)n(-c2ccc(C(O)C(F)(F)F)cc2)n1` (stereo not drawn) [Example 451, 1-{3-methyl-1-[4-(2,2,2-trifluoro-1-hydroxyethyl)phenyl]-1H-pyrazol-5-yl}-3-(naphthalen-1-yl)urea] reads 3%.

Staying with this experiment, now noted: read-out: % Inhibition @ concentration, Table 3; at 10 uM.
For `CC(C)(O)c1cccc(-n2nc(-c3ccccc3)cc2NC(=O)Nc2cccc3ccccc23)c1` [Example 432, 1-{1-[3-(2-hydroxypropan-2-yl)phenyl]-3-phenyl-1H-pyrazol-5-yl}-3-(naphthalen-1-yl)urea], the inhibition at 10 µM is 24%.
In the case of `Cc1cc(NC(=O)Nc2cccc(Cl)c2Cl)n(-c2ccc(CO)cc2)n1` [Example 450, 1-(2,3-dichlorophenyl)-3-{1-[4-(hydroxymethyl)phenyl]-3-methyl-1H pyrazol-5-yl)urea], the inhibition at 10 µM was 192%.
